The values below come from publication PMC5671735, “The Effect of CM082, an Oral Tyrosine Kinase Inhibitor, on Experimental Choroidal Neovascularization in Rats” (Journal of Ophthalmology, 2017).

Data set [1] concerns laser-induced CNV rat model. Briefly: Fundus fluorescence angiography (FFA) of fluorescein leakage in laser-induced CNV. In kind it is in vivo, Brown Norway (BN) rats. How it is done: (§1) Laser photocoagulation-induced CNV was established as previously described. Preoperative preparation included general anesthesia, which was induced with an intraperitoneal injection of 1% pentobarbital sodium (40 mg/kg; Sigma-Aldrich, St. Louis, MO, USA). The rats' pupils were dilated using 0.5% tropicamide and 0.5% phenylephrine (Mydrin-P, Santen Pharmaceutical Co., Osaka, Japan). Surface anesthesia was induced with 0.5% Alcaine (Alcon (China) Ophthalmic Product Co., Beijing, China). Bruch's membrane of the right eye was injured using the following laser parameters: 532 nm wavelength, 360 mW intensity, 0.1 s duration, and 50 μm spot size. Eight to ten laser spots were applied to the major retinal vessels at approximately the same distance to the optic disc. A laser-induced cavitation bubble or slight hemorrhage indicated a rupture in Bruch's membrane. Fundus photography was taken immediately after laser photocoagulation to check for fundus hemorrhage.
(§2) To assess the CM082 distribution and the inhibitory effects of CM082 on CNV development, the 70 rats were randomly divided into 2 groups: 10 rats for evaluating the CNV rat model and to detect the distribution of CM082 and its metabolites and 60 rats for assessing the effects of CM082 on the experimental CNV. CM082 was administered orally at dose of 10 mg/kg/d or 30 mg/kg/d, while the vehicle ([…]) was used as a negative control.
The preoperative preparations were the same as those used to establish the CNV model. Approximately 0.2 ml of 10% sodium fluorescein (Alcon Japan, Tokyo, Japan) was injected intraperitoneally, and the leakage of fluorescein from the laser lesions was monitored dynamically for up to 15 min. The images were obtained using confocal scanning laser ophthalmoscopy (Spectralis, Heidelberg Engineering Inc., Heidelberg, Germany) and analyzed using ImageJ software (National Institutes of Health, Bethesda, MD, USA). The signal intensities (brightness of the CNV lesions) defined the degree of leakage. As a reference, the intensity of the capillaries in the normal regions was defined as 0, whereas the intensity at the major branch of the retinal vein was defined as 1.
To determine whether CM082 inhibited CNV progression, 60 BN rats were divided into 4 groups and randomized by weight, with 10 rats receiving CM082 at 10 mg/kg/d, 10 receiving CM082 at 30 mg/kg/d, 20 receiving vehicle treatment, and 20 undergoing the RPE-choroid-sclera preparation. […] The CNV analysis was performed on day 14 or 21 after laser photocoagulation using FFA, histological examinations, and immunohistochemistry.

Data set [2] relates to oxidative-induced retinopathy. The following applies: CM082-treated group compared to control group; no reference given; cited from earlier work.
Data set [3] in a line: LC-MS/MS concentrations of CM082 and its metabolites in plasma and ocular tissues after oral CM082. In kind it is in vivo, Brown Norway (BN) rats. How it is done: as §2
Liquid chromatography-tandem mass spectrometry (LC-MS/MS) was employed to detect the concentrations of CM082 and its metabolites (X-297 (C22H24FN5O3) and X-471 (C23H28FN5O4)) in the plasma and ocular tissues. An API-4000 triple-quadrupole mass spectrometer (AB Sciex, Framingham, MA, USA) coupled with a Shimadzu liquid chromatography system (Shimadzu Cooperation, Kyoto, Japan) was used for the analysis. CM082, its metabolites, and tolbutamide were dissolved in DMSO to generate 1.0 mg/ml stock solutions stored at 4°C. A total of 200 μl of the tolbutamide stock solution was dissolved in acetonitrile to produce internal-standard working solutions. The plasma and ocular tissue samples were analyzed along with the standard and quality-control samples. The data were analyzed with Analyst 1.6.1 (AB Sciex, Framingham, MA, USA).
Ten BN rats were photocoagulated in the oculus dexter (OD) to build the CNV rat model. Histological examination was performed at day 21, while FFA was conducted at days 14 and 21 to ensure that the CNV model was established successfully and to provide evidence that neovascularization was induced (Figures 1(a), 1(b), and 1(c)). After modeling CNV successfully, to investigate whether CM082 and its metabolites (X-297 and X-471) can reach the retina effectively, the rest of the nine rats were orally treated with CM082 at 10 mg/kg/d for 9 days, starting from day 22. […] Two days after FFA, the rats were sacrificed, and we determined the concentrations of CM082 in the plasma (ng/ml) and the ocular tissues (ng/g) 2 h after CM082 treatment. The concentrations of CM082 in the plasma, the oculus sinister (OS), and the OD were 196.87 ± 24.38 ng/ml, 172.74 ± 20.83 ng/g, and 172.97 ± 18.33 ng/g, respectively. The corresponding concentrations of X-297 were 34.42 ± 3.86 ng/ml, 31.28 ± 4.00 ng/g, and 31.11 ± 3.56 ng/g, while those of X-471 were 32.04 ± 4.57 ng/ml, 16.68 ± 2.18 ng/g, and 15.82 ± 1.85 ng/g.

Data set [4] concerns phosphorylated VEGFR-2 (p-VEGFR-2). Briefly: Immunohistochemistry of phosphorylated VEGFR-2 in CNV eyes. The following applies: CM082 30 mg/kg oral, 14 and 21 days after laser injury, vs vehicle. In kind it is in vivo, Brown Norway (BN) rats. The procedure:
The rats were euthanized after the FFA examination on day 14 or 21 after laser injury, and a histological examination was performed on 4 rats per group at each time point. The animals were enucleated, and the eyes were fixed in paraformaldehyde for 24 h (the eyelashes were also removed). After fixation, the eyes were embedded in paraffin and serially sectioned at 5 μm. Routine hematoxylin-eosin (HE) staining was performed on selected slides, and the serial sections were examined using a light microscope. Immunohistochemical staining was performed on the histological sections from the CM082-treated and vehicle-treated groups 14 and 21 days after laser administration. Routine immunolocalization procedures were used to dewax and rehydrate the slides. The slides were incubated with 3% hydrogen peroxidase for 25 min and washed in phosphate-buffered saline (PBS) for 5 min. The slides were then blocked in goat serum for 15 min. Next, the sections were incubated with a phosphorylated anti-VEGFR-2 antibody (Nanjing Bioworld Biotech Co., Jiangsu, China) overnight at 4°C, followed by incubation with Goat Anti-Rabbit/Rat IgG antibody (Dako Denmark A/S, Denmark) for 30 min. The sections were subsequently incubated with horseradish peroxidase-conjugated streptavidin (Thermo Fisher Scientific China, Shanghai, China) for 30 min and then counterstained with hematoxylin for 2 min. […]

Data set [5] is classed as in vivo. The note with it: oral CM082 10 or 30 mg/kg/d. From the text:
[…] BN rats were used in this study.

In data set [6] the test system is laser-induced CNV rat model. The experiment in a line: CNV histology (HE staining). The class given is in vivo, Brown Norway (BN) rats. The procedure:
as §1
The rats were euthanized after the FFA examination on day 14 or 21 after laser injury, and a histological examination was performed on 4 rats per group at each time point. The animals were enucleated, and the eyes were fixed in paraformaldehyde for 24 h (the eyelashes were also removed). After fixation, the eyes were embedded in paraffin and serially sectioned at 5 μm. […]

The subject of data set [7] is laser-induced CNV rat model. The experiment in a line: CNV area in RPE-choroid-sclera flat mounts after FITC-dextran perfusion. The class given is in vivo, Brown Norway (BN) rats. How it is done:
as §1
To assess the inhibitory effects of CM082 on CNV development, the photocoagulated rats were randomly divided into 2 groups: (1) a CM082-treated group (n = 9) and (2) a vehicle-treated group (n = 9). CM082 (30 mg/kg/d or 5 ml/kg/d) or vehicle (5 ml/kg/d) was administered beginning on the 7th day after laser injury. On the 7th, 14th, or 21st day, 3 rats from each group were anesthetized, and the left ventricle of the heart was perfused with 2 ml of PBS containing 50 mg of fluorescein isothiocyanate- (FITC-) dextran (2 × 10^6 average molecular weight; Sigma-Aldrich). The enucleated eyes were fixed in 4% paraformaldehyde for 1 h. […] The CNV area was measured by ImageJ software (National Institutes of Health, Bethesda, MD, USA).
To further confirm the reverse effect of CM082 at a dose of 30 mg/kg/d on the CNV area, we prepared RPE-choroid-sclera by perfusion with FITC-dextran. […] In addition to comparing the CM082-treated group to the vehicle-treated group, we analyzed the CNV area in the CM082-treated group at different time points.

The test system of data set [8] is CNV model produced by subretinal injection of Matrigel. The note with it: no reference given; cited from earlier work.

Where “and” joins values, the source holds several entries; their conditions need not be identical. Equal entries are not always repeated.

With `Cc1[nH]c(/C=C2\C(=O)Nc3ccc(F)cc32)c(C)c1C(=O)N[C@H]1CCN(C(=O)N(C)C)C1` [CM082], the “FFA leakage signal intensity” value in data set [1] (10 mg/kg/d group, day 7 after laser injury, before CM082 administration (baseline), scale 0 = capillaries, 1 = retinal vein, vehicle 0.81 ± 0.03) worked out at 0.78 ± 0.04; in data set [1] (30 mg/kg/d group, day 7 after photocoagulation, before dosing (baseline), vehicle 0.81 ± 0.02, p > 0.05), 0.77 ± 0.04; in data set [1] (CM082 10 mg/kg/d oral from day 7, day 21 after laser injury (14 days after dosing), vehicle 0.82 ± 0.03, p < 0.01) it was 0.66 ± 0.05; in data set [1] (CM082 30 mg/kg/d oral from day 7, day 14, vehicle 0.83 ± 0.03, p < 0.001), 0.42 ± 0.03; in data set [1] (CM082 30 mg/kg/d oral from day 7, day 21, vehicle 0.86 ± 0.02, p < 0.001), 0.35 ± 0.05. In addition, in data set [1] (CM082 10 mg/kg/d oral started day 22 after laser, FFA after 7 days of administration (day 28), p > 0.05), the “FFA fluorescein leakage vs days 14 and 21” value is “no significant reduction in fluorescein leakage”. In addition, the inhibition rate in data set [2] is 71.1%. The “distribution within the ocular tissues” value in data set [3] (2 h after CM082 administration, oral 10 mg/kg/d) is recorded as “highest in the retina-sclera”. Besides, the “concentration in the oculus sinister (OS)” value in data set [3] (CM082 oral 10 mg/kg/d for 9 days, 2 h after CM082 treatment, n = 9, eye without laser injury) is 172.74 ± 20.83 ng/g. Also, the “concentration in the oculus dexter (OD)” value in data set [3] (CM082 oral 10 mg/kg/d for 9 days, 2 h after CM082 treatment, n = 9, photocoagulated eye) was 172.97 ± 18.33 ng/g. In addition, in data set [3] (CM082 oral 10 mg/kg/d for 9 days, 2 h after CM082 treatment, n = 9, 10 mg/kg/day), the “concentration in the plasma” value was 196.87 ± 73.13 ng/mL and 196.87 ± 24.38 ng/mL. For the same compound, the “total concentration in the eyes” value in data set [3] (oral CM082, abstract value) was found to be 172.86 ± 57.11 ng/g. In data set [4], the p-VEGFR-2 immunostaining result was “reduced the aggregation of p-VEGFR-2 in the RPE and OPL”. In addition, in data set [5], the tolerability during treatment entry was “no behavioral change, death, or body weight loss”. For the same compound, the “CNV lesion size by histology (HE)” value in data set [6] (CM082 10 mg/kg/d oral, day 21, vs vehicle) was “smaller”. Besides, the “edema, depigmentation, and CNV areas by histology (HE)” value in data set [6] (CM082 30 mg/kg/d oral, 14 and 21 days after laser photocoagulation, vs vehicle) is “significantly decreased”. Moreover, the “area of the CNV lesions” value in data set [7] (30 mg/kg/d group, 7 days after laser photocoagulation, before dosing (baseline), vehicle 4.84 ± 0.72) amounted to 4.45 ± 0.90 μm^2 × 10^4; in data set [7] (CM082 30 mg/kg/d oral from day 7, 14 days after laser injury, vehicle 9.60 ± 1.68), 1.48 ± 0.24 μm^2 × 10^4; in data set [7] (CM082 30 mg/kg/d oral from day 7, 21 days after laser injury, vehicle 19.61), 1.03 ± 0.27 μm^2 × 10^4. Further, the “areas of CNV lesions” value in data set [8] is given as “reduced the areas of CNV lesions”.
